{"source": "ChEMBL document CHEMBL1177733", "about": "“Mayamycin, a cytotoxic polyketide from a Streptomyces strain isolated from the marine sponge Halichondria panicea” (J Nat Prod, 2010)", "key": {"Cutibacterium acnes": {"system": "Cutibacterium acnes", "experiment": "Antibacterial activity against Propionibacterium acnes DSM 1897 after 48 hrs by microtiter plate assay", "format": "functional, organism-based", "details": "DSM 1897, 48 h"}, "Bacillus subtilis": {"system": "Bacillus subtilis", "experiment": "Antibacterial activity against Bacillus subtilis DSM 347 after 14-16 hrs by microtiter plate assay", "details": "DSM 347, 14-16 h"}, "Mammaliicoccus lentus": {"system": "Mammaliicoccus lentus", "experiment": "Antibacterial activity against Staphylococcus lentus DSM 6672 after 14-16 hrs by microtiter plate assay", "details": "DSM 6672, 14-16 h"}, "Xanthomonas campestris": {"system": "Xanthomonas campestris", "experiment": "Antibacterial activity against Xanthomonas campestris DSM 2405 after 14-16 hrs by microtiter plate assay", "details": "DSM 2405, 14-16 h"}, "Pseudomonas aeruginosa": {"system": "Pseudomonas aeruginosa", "experiment": "Antibacterial activity against Pseudomonas aeruginosa DSM 50071 after 14-16 hrs by microtiter plate assay", "details": "DSM 50071, 14-16 h"}, "Dermabacter hominis": {"system": "Dermabacter hominis", "experiment": "Antibacterial activity against Dermabacter hominis DSM 7083 after 24 hrs by microtiter plate assay", "details": "DSM 7083, 24 h"}, "[1]": {"system": "Brevibacterium epidermidis", "experiment": "Antibacterial activity against Brevibacterium epidermidis DSM 20660 after 14-16 hrs by microtiter plate assay", "details": "DSM 20660, 14-16 h"}, "HT-29": {"system": "HT-29", "experiment": "Cytotoxicity against human HT-29 cells after 24 hrs by CellTiter-BlueCell viability assay", "format": "functional, cell-based", "details": "HT-29, 24 h"}, "[2]": {"experiment": "Cytotoxicity against human RXF 486L cells by modified propidium iodide monolayer assay"}, "[3]": {"experiment": "Cytotoxicity against human PAXF 1657L cells by modified propidium iodide monolayer assay"}, "[4]": {"experiment": "Cytotoxicity against human LXFL529 cells after 24 hrs by propidium iodide monolayer assay", "details": "LXFL 529, 24 h"}, "[5]": {"experiment": "Cytotoxicity against human MEXF 462NL cells by modified propidium iodide monolayer assay"}, "[6]": {"experiment": "Cytotoxicity against human GXF251L cells after 24 hrs by propidium iodide monolayer assay", "details": "GXF 251L"}, "[7]": {"experiment": "Cytotoxicity against human MAXF 401NL cells after 24 hrs by propidium iodide monolayer assay"}, "Staphylococcus aureus": {"system": "Staphylococcus aureus", "experiment": "Antibacterial activity against Staphylococcus aureus ATCC 12600 after 48 hrs by microtiter plate assay", "format": "functional, organism-based", "details": "ATCC 12600, 48 h"}}}
{"smiles": "O=C(N[C@H](CO)[C@H](O)c1ccc([N+](=O)[O-])cc1)C(Cl)Cl", "note": "[CHLORAMPHENICOL]", "values": [{"measurement": "IC50", "setting": "Cutibacterium acnes", "result": 1000, "unit": "nM"}, {"measurement": "IC50", "setting": "Bacillus subtilis", "result": 9, "unit": "µM"}, {"measurement": "IC50", "setting": "Mammaliicoccus lentus", "result": 2300, "unit": "nM"}, {"measurement": "IC50", "setting": "Xanthomonas campestris", "result": 3.6, "unit": "µM"}, {"measurement": "IC50", "setting": "Pseudomonas aeruginosa", "result": 27.3, "unit": "µM"}]}
{"smiles": "CN(C)[C@@H]1C(O)=C(C(N)=O)C(=O)[C@@]2(O)C(O)=C3C(=O)c4c(O)cccc4[C@@](C)(O)[C@H]3C[C@@H]12", "note": "[TETRACYCLINE]", "values": [{"measurement": "IC50", "setting": "Dermabacter hominis", "result": 1200, "unit": "nM"}, {"measurement": "IC50", "setting": "[1]", "result": 13.9, "unit": "µM"}]}
{"smiles": "CC/C(=C(\\c1ccccc1)c1ccc(OCCN(C)C)cc1)c1ccccc1", "note": "[TAMOXIFEN]", "values": [{"measurement": "IC50", "setting": "HT-29", "result": 38.6, "unit": "µM"}]}
{"smiles": "COc1cccc2c1C(=O)c1c(O)c3c(c(O)c1C2=O)C[C@@](O)(C(=O)CO)C[C@@H]3O[C@H]1C[C@H](N)[C@H](O)[C@H](C)O1", "note": "[DOXORUBICIN]", "values": [{"measurement": "IC50", "setting": "[2]", "result": "≤ 52", "unit": "nM"}, {"measurement": "IC50", "setting": "[3]", "result": "< 52", "unit": "nM"}, {"measurement": "IC50", "setting": "[4]", "result": "< 52", "unit": "nM"}, {"measurement": "IC50", "setting": "[5]", "result": "< 52", "unit": "nM"}, {"measurement": "IC50", "setting": "[6]", "result": "< 52", "unit": "nM"}, {"measurement": "IC50", "setting": "[7]", "result": "< 52", "unit": "nM"}]}
{"smiles": "COc1c(N2C[C@@H]3CCCN[C@@H]3C2)c(F)cc2c(=O)c(C(=O)O)cn(C3CC3)c12", "note": "[MOXIFLOXACIN]", "values": [{"measurement": "IC50", "setting": "Staphylococcus aureus", "result": 7.5, "unit": "µM"}]}
